# Reference: US11999727B2 (Tango Therapeutics, Inc., priority 2020, dated 2024)
# What was measured:
# [1] = system: HAP1 MTAP-deleted cell line; test: SDMA in-cell western assay, HAP1 MTAP-deleted; type: cell-based; settings: for IC50: Homo sapiens, HAP1, SDMA in-cell western, HAP1 MTAP-deleted, read-out: HAP1 MTAP deleted IC50; for MTAP intact/deleted ratio: IC50 ratio HAP1 MTAP-intact / HAP1 MTAP-deleted, SDMA in-cell western
# Procedure, shortened: (§1)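 Isogenic HAP1 pair: the MTAP-intact line expresses endogenous MTAP, and the deleted line is MTAP-null. Symmetric dimethylarginine was detected by in-cell western and IC50 values derived for each line.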
# [2] = system: HAP1 MTAP-intact cell line; test: SDMA in-cell western assay, HAP1 MTAP-intact; type: cell-based; design: MTAP HAP1 intact IC50: scale not given here; settings: HAP1 MTAP-intact; for IC50: Homo sapiens, HAP1, SDMA in-cell western, read-out: MTAP HAP1 intact IC50
# Procedure, shortened: as §1
# [3] = molecular target: T1, PRMT5 (Homo sapiens, UniProt O14744); test: PRMT5 biochemical IC50 assay with SAM as cofactor; settings: PRMT5, SAM as cofactor; read-out: SAM IC50
# T1 construct: purchased Viva (custom protein)
# T1 sequence (O14744 whole entry): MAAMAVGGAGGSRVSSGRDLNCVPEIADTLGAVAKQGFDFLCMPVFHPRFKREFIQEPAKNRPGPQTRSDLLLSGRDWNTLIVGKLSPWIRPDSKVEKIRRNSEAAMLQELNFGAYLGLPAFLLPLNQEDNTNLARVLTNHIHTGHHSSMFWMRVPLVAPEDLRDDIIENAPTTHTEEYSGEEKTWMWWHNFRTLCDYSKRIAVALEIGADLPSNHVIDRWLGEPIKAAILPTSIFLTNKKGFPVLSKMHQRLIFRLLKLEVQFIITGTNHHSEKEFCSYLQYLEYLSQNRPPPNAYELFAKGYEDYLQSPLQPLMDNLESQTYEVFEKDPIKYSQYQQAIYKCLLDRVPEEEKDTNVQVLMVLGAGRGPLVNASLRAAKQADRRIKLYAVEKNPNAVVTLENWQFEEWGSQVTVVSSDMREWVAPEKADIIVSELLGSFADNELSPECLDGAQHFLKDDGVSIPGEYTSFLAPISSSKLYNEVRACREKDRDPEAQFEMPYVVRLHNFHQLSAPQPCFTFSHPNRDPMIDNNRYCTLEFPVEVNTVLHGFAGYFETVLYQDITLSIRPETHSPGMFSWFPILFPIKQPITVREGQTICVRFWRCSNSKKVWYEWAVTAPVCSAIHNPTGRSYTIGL
# T1 sequence (Q9BQA1 whole entry partner): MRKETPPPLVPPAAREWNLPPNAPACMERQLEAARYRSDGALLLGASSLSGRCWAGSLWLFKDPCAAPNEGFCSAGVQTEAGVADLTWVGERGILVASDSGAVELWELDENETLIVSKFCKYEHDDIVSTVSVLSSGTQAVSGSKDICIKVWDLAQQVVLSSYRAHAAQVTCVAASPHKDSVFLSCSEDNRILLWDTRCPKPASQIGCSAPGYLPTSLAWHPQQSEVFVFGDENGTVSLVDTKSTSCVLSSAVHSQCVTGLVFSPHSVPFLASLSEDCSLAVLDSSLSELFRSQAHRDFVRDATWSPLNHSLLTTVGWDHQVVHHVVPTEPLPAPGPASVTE
# [4] = system: HAP1 MTAP-deleted cell line; test: Viability assay, MTAP-deleted cell line; type: cell-based; settings: Homo sapiens, HAP1, viability assay, HAP1 MTAP-deleted; read-out: HAP1 MTAP deleted viability
# Description: Table 1 additionally indicates IC50 values in a viability assay for the MTAP-deleted cell line (column 10), indicating the effect of treatment with compound on cell survival.
# [5] = molecular target: T1, PRMT5; test: PRMT5 biochemical IC50 assay with no cofactor; settings: PRMT5, no cofactor; read-out: No Cofactor/rel IC50
# Description: Table 1 indicates IC50 values (μM) against PRMT5 for exemplary compounds in the presence of SAM as cofactor, with no cofactor, and with MTA as cofactor, respectively (columns 4-6). […] Ki values can be calculated from the IC50 values as described in the Examples section. As detailed in the Examples section, for the assay performed in the presence of SAM, IC50=Ki×1.5 (Ki=IC50/1.5).
# [6] = molecular target: T1, PRMT5; test: PRMT5 biochemical IC50 assay with MTA as cofactor; settings: PRMT5, MTA as cofactor; read-out: MTA IC50
IC50 [1] [µM],IC50 [2] [µM],IC50 [3] [µM],IC50 [5] [µM],IC50 [6] [µM],MTAP HAP1 intact IC50 ([2]; SDMA in-cell western),Compound,MTAP intact/deleted ratio [1],IC50 [4] [µM]
> 1,> 1,> 0.5,> 0.5,0.05 to 0.5,,"Cc1cc(NC(=O)C(=O)N2C[C@H](C)CC[C@H]2[C@H]2CC3(C[C@H](C(N)=O)C3)C2)cnc1N (mixture of isomers) [Compound 812, 6-(1-(2-((6-amino-5-methylpyridin-3-yl)amino)-2-oxoacetyl)-5-methylpiperidin-2-yl)spiro[3.3]heptane-2-carboxamide]",C (an IC50 ratio of less than 3 fold),> 10
0.1 to 1,> 1,0.05 to 0.5,0.05 to 0.5,0.05 to 0.5,,"CNC(=O)N1CCCC([C@@H]2CC[C@@H](C)CN2C(=O)C(=O)Nc2cnc(N)c(C)c2)C1 (mixture of isomers) [Compound 814, 1-(2-((6-amino-5-methylpyridin-3-yl)amino)-2-oxoacetyl)-N,5-dimethyl-[2,3′-bipiperidine]-1′-carboxamide]",A (an IC50 ratio greater than or equal to 10 fold),> 10
< 0.1,0.1 to 1,0.05 to 0.5,0.05 to 0.5,< 0.05,,"Cc1cc(NC(=O)C(=O)N2C[C@H](C)CC[C@H]2c2cc3cn[nH]c3s2)cnc1N (racemic) [Compound 815, N-(6-amino-5-methylpyridin-3-yl)-2-(5-methyl-2-(1H-thieno[2,3-c]pyrazol-5-yl)piperidin-1-yl)-2-oxoacetamide]",A* (an IC50 ratio greater than or equal to 10 fold),< 1
> 1,> 1,> 0.5,> 0.5,0.05 to 0.5,,"CC(=O)N[C@H]1CCN(C(=O)C(=O)Nc2cnc(N)c(C)c2)[C@@H](c2ccccc2)C1 (racemic) [Compound 831, 2-[(2R,4S)-4-acetamido-2-phenyl-1-piperidyl]-N-(6-amino-5-methyl-3-pyridyl)-2-oxo-acetamide]",B (an IC50 ratio greater than or equal to 3 fold but lower than 10 fold),> 10
< 0.1,0.1 to 1,0.05 to 0.5,0.05 to 0.5,0.05 to 0.5,,"Cc1cc(NC(=O)C(=O)N2C[C@H](C)CC[C@H]2c2ccc3sc(C(F)(F)F)nc3c2)cnc1N (racemic) [Compound 861, rac-N-(6-Amino-5-methyl-3-pyridyl)-2-[(2R,5S)-5-methyl-2-[2-(trifluoromethyl)-1,3-benzothiazol-5-yl]-1-piperidyl]-2-oxo-acetamide]",A (an IC50 ratio greater than or equal to 10 fold),< 1
< 0.1,> 1,0.05 to 0.5,0.05 to 0.5,0.05 to 0.5,,"COc1ncc(NC(=O)C(=O)N2C[C@@H](C)CC[C@@H]2c2ccc3c(c2)OCCN3)cc1C(N)=O (racemic) [Compound 869, 5-[[2-[(2R,5S)-2-(3,4-dihydro-2H-1,4-benzoxazin-7-yl)-5-methyl-1-piperidyl]-2-oxo-acetyl]amino]-2-methoxy-pyridine-3-carboxamide]",A (an IC50 ratio greater than or equal to 10 fold),< 1

# Further lines, the compound ahead of its results:
Compound,IC50 [1] [µM],IC50 [2] [µM],IC50 [3] [µM],IC50 [5] [µM],IC50 [6] [µM],MTAP HAP1 intact IC50 ([2]; SDMA in-cell western),MTAP intact/deleted ratio [1],IC50 [4] [µM]
"Cc1ncc(NC(=O)C(=O)N2C[C@H](C)CC[C@H]2c2ccc3c(c2)CCC(=O)N3)cc1C(F)F (racemic) [Compound 803, rac-N-[5-(Difluoromethyl)-6-methyl-3-pyridyl]-2-[(2S,5R)-5-methyl-2-(2-oxo-3,4-dihydro-1H-quinolin-6-yl)-1-piperidyl]-2-oxo-acetamide]",< 0.1,> 1,0.05 to 0.5,0.05 to 0.5,< 0.05,,A (an IC50 ratio greater than or equal to 10 fold),< 1
"C[C@@H]1CC[C@@H](c2ccc(F)cc2)N(C(=O)C(=O)Nc2cnc(OC(F)(F)F)c(C(N)=O)c2)C1 (racemic) [Compound 818, rac 5-[[2-[(2R,5S)-2-(4-fluorophenyl)-5-methyl-1-piperidyl]-2-oxo-acetyl]amino]-2-(trifluoromethoxy)pyridine-3-carboxamide]",0.1 to 1,> 1,0.05 to 0.5,0.05 to 0.5,0.05 to 0.5,,A (an IC50 ratio greater than or equal to 10 fold),> 10
"CNc1nc2cc([C@@H]3CC[C@@H](C)CN3C(=O)C(=O)Nc3cnc(C)c(C)c3)ccc2s1 (racemic) [Compound 828, N-(5,6-dimethyl-3-pyridyl)-2-[(2R,5S)-5-methyl-2-[2-(methylamino)-1,3-benzothiazol-5-yl]-1-piperidyl]-2-oxo-acetamide]",< 0.1,> 1,0.05 to 0.5,0.05 to 0.5,0.05 to 0.5,,A (an IC50 ratio greater than or equal to 10 fold),1 to 10
"C[C@@H]1CN(C(=O)C(=O)Nc2cncc(C(N)=O)c2)[C@@H](c2ccc(F)cc2)C(F)(F)C1 (racemic) [Compound 836, 5-[[2-[(2S,5S)-3,3-difluoro-2-(4-fluorophenyl)-5-methyl-1-piperidyl]-2-oxo-acetyl]amino]pyridine-3-carboxamide]",0.1 to 1,,0.05 to 0.5,0.05 to 0.5,< 0.05,C*,A (an IC50 ratio greater than or equal to 10 fold),1 to 10
"Cc1cc(NC(=O)C(=O)N2CC[C@@H](C(=O)C(C)C)C[C@H]2c2ccc3c(c2)CCC(=O)N3)cnc1N (racemic) [Compound 853, N-(6-amino-5-methyl-3-pyridyl)-2-[(2S,4R)-4-(2-methylpropanoyl)-2-(2-oxo-3,4-dihydro-1H-quinolin-6-yl)-1-piperidyl]-2-oxo-acetamide]",0.1 to 1,> 1,0.05 to 0.5,0.05 to 0.5,0.05 to 0.5,,A (an IC50 ratio greater than or equal to 10 fold),1 to 10
"Cc1cc(NC(=O)C(=O)N2CCC(C(=O)C(C)C)C[C@H]2c2ccc3c(c2)CCC(=O)N3)cnc1N (mixture of isomers) [Compound 854, N-(6-Amino-5-methyl-3-pyridyl)-2-[(2S)-4-(2-methylpropanoyl)-2-(2-oxo-3,4-dihydro-1H-quinolin-6-yl)-1-piperidyl]-2-oxo-acetamide]",0.1 to 1,> 1,0.05 to 0.5,0.05 to 0.5,0.05 to 0.5,,A (an IC50 ratio greater than or equal to 10 fold),1 to 10
"C[C@@H]1CC[C@@H](c2ccc(F)cc2)N(C(=O)C(=O)Nc2cnc(N)c(C(F)F)c2)C1 (racemic) [Compound 867, N-[6-amino-5-(difluoromethyl)-3-pyridyl]-2-[(2R,5S)-2-(4-fluorophenyl)-5-methyl-1-piperidyl]-2-oxo-acetamide]",0.1 to 1,> 1,0.05 to 0.5,0.05 to 0.5,0.05 to 0.5,,A (an IC50 ratio greater than or equal to 10 fold),1 to 10
